Laboratory results from the supplement of paper PMC10878532, “Sperm Toolbox—A selection of small molecules to study human spermatozoa” (PLOS ONE, 2024).

What was measured:
human spermatozoa [1] = experiment: total motile sperm, percent change vs DMSO (non-capacitating); higher = more of the measured sperm population than DMSO, for viability, fewer PI-positive (dead) cells than DMSO
human spermatozoa [2] = experiment: viability fold change, 1 - (PI-positive fraction / DMSO median); higher = more of the measured sperm population than DMSO, for viability, fewer PI-positive (dead) cells than DMSO; settings: incubation time: 3h, non-capacitating
HepG2 = HepG2 toxicity (resazurin), effect normalised to DMSO (DMSO = 0); higher = more features changed / larger toxic effect; settings: incubation time: 70h incubation
human spermatozoa [3] = experiment: acrosome-reacted (PNA+) sperm after agonist cocktail, percent change vs DMSO (capacitating); higher = more of the measured sperm population than DMSO, for viability, fewer PI-positive (dead) cells than DMSO; settings: incubation time: 3h, capacitating + agonist cocktail 1h
HeLa [4] = experiment: Cell Painting percent induction (share of features beyond 2 z-scores vs DMSO); higher = more features changed / larger toxic effect; extreme values may be limits of the assay; settings: incubation time: 24h incubation
human spermatozoa [5] = experiment: progressively motile sperm, percent change vs DMSO (non-capacitating); higher = more of the measured sperm population than DMSO, for viability, fewer PI-positive (dead) cells than DMSO; extreme values may be limits of the assay
human spermatozoa [6] = experiment: hyperactivated motile sperm, percent change vs DMSO (capacitating); higher = more of the measured sperm population than DMSO, for viability, fewer PI-positive (dead) cells than DMSO; settings: incubation time: 30min incubation
HeLa [7] = experiment: HeLa toxicity: nuclei-count effect normalised to DMSO (DMSO = 0); higher = more features changed / larger toxic effect; settings: incubation time: 24h incubation
human spermatozoa [8] = experiment: change in acrosome-reacted (PNA+) sperm vs DMSO, no agonist (capacitating); higher = more of the measured sperm population than DMSO, for viability, fewer PI-positive (dead) cells than DMSO; settings: incubation time: 3h
human spermatozoa [9] = experiment: progressively motile sperm, percent change vs DMSO (capacitating); higher = more of the measured sperm population than DMSO, for viability, fewer PI-positive (dead) cells than DMSO; settings: incubation time: 30min incubation
[10] = incubation time: 10min incubation, 9.99 µM
[11] = incubation time: 10min incubation, 29.9 µM
[12] = incubation time: 3h incubation, 9.99 µM
[13] = incubation time: 3h incubation, 29.9 µM
[14] = incubation time: 6h incubation, 9.99 µM
[15] = incubation time: 6h incubation, 29.9 µM
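Throughout, for progressively motile sperm, percent change vs DMSO (non-capacitating): pooled live human sperm from at least 3 donors, tracked by automated microscopy in 0.5 s time-lapse movies, compounds at 10 and 30 µM, versus median of 16 DMSO wells per plate.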
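Throughout, for total motile sperm, percent change vs DMSO (non-capacitating): sperm pooled from at least 3 donors, tracked in 0.5 s time-lapse movies by automated microscopy after 10 min, 3 h or 6 h with compound at 10 or 30 µM.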

| SMILES | total motile sperm (human spermatozoa [1]; [10]) | total motile sperm (human spermatozoa [1]; [11]) | total motile sperm (human spermatozoa [1]; [12]) | total motile sperm (human spermatozoa [1]; [13]) | total motile sperm (human spermatozoa [1]; [14]) | total motile sperm (human spermatozoa [1]; [15]) | viability fold change (human spermatozoa [2]; 9.99 µM) | viability fold change (human spermatozoa [2]; 29.9 µM) | HepG2 toxicity (HepG2; 10 µM) | HepG2 toxicity (HepG2; 30 µM) | acrosome-reacted (human spermatozoa [3]; 9.99 µM) | acrosome-reacted (human spermatozoa [3]; 29.9 µM) | Cell Painting percent induction (HeLa [4]; 9.99 µM) | Cell Painting percent induction (HeLa [4]; 29.9 µM) | progressively motile sperm (human spermatozoa [5]; [10]) | progressively motile sperm (human spermatozoa [5]; [11]) | progressively motile sperm (human spermatozoa [5]; [12]) | progressively motile sperm (human spermatozoa [5]; [13]) | progressively motile sperm (human spermatozoa [5]; [14]) | progressively motile sperm (human spermatozoa [5]; [15]) | hyperactivated motile sperm (human spermatozoa [6]; 9.99 µM) | hyperactivated motile sperm (human spermatozoa [6]; 29.9 µM) | HeLa toxicity: nuclei-count effect normalised (HeLa [7]; 9.99 µM) | HeLa toxicity: nuclei-count effect normalised (HeLa [7]; 29.9 µM) | change in acrosome-reacted (human spermatozoa [8]; 9.99 µM) | change in acrosome-reacted (human spermatozoa [8]; 29.9 µM) | progressively motile sperm (human spermatozoa [9]; 9.99 µM) | progressively motile sperm (human spermatozoa [9]; 29.9 µM) |
| --- | --- | --- | --- | --- | --- | --- | --- | --- | --- | --- | --- | --- | --- | --- | --- | --- | --- | --- | --- | --- | --- | --- | --- | --- | --- | --- | --- | --- |
| CCOCc1nc2c(N)nc3ccccc3c2n1CC(C)(C)O [Resiquimod] | -0.764% | -12.1% | -11.9% | -23.9% | -12.4% | -21.3% | -0.843 | -0.207 | 12.3% | -1.68% | 2.21% | -0.339% | 0% | 0% | -38.4% | -75.7% | -66.1% | -88% | -66.2% | -83.9% | -81.8% | -84.5% | 1.14% | 0.735% | 0.989% | 0.739% | -29.5% | -59.7% |
| C[C@]1(O)C[C@@H](c2nc(-c3ccc4ccc(-c5ccccc5)nc4c3)c3c(N)nccn32)C1 [Linsitinib] | 2.7% | 5.16% | -8.39% | -6.08% | -8.05% | -11.2% | -1.24 | -1.48 | -2.88% | 27.2% | 115% | 113% | 1.62% | 0.144% | 43.2% | 45.9% | 71.3% | 65.1% | 93.9% | 79.2% | 219% | 114% | 2.74% | 25% | 1.26% | 1.92% | 10.2% | 14.7% |
| NC(=O)c1cc(-c2ccc(S(=O)(=O)[C@H]3CC[C@H](Nc4ccc(C(F)(F)F)cn4)CC3)cc2)ccn1 [CCR6 inhibitor 1] | -1.18% | -0.388% | -10.1% | -17.5% | -12.7% | -30% | -1.3 | -0.257 | 93.6% | 97.6% | 47.9% | 31% | 0.144% | 1.51% | 20.1% | 23% | 25.5% | 9.27% | 37.7% | -18.5% | 0.384% | -27% | 38.5% | 82.3% | 0.47% | 1.33% | 4.84% | -2.5% |
| C=C[C@@]1(C)CC(=O)[C@@]2(O)[C@](C)(O1)[C@@H](OC(C)=O)[C@@H](O)C1C(C)(C)CC[C@H](O)[C@@]12C (some centres undefined) [Forskolin] | 0.618% | 0.675% | -0.0205% | 4.68% | -0.697% | -0.227% | -0.712 | -0.989 | 3.42% | -7.11% | 0.165% | -4.34% | 1.19% | 0.108% | 0.859% | 0.86% | 3.82% | 13.8% | -0.781% | 12% | 26.6% | 5.16% | -1.74% | -1.47% | 0.404% | 0.226% | 7.73% | 8.32% |
| Cc1[nH]c(/C=C2\C(=O)Nc3ccc(S(=O)(=O)Cc4c(Cl)cccc4Cl)cc32)c(C)c1C(=O)N1CCC[C@@H]1CN1CCCC1 | -0.103% | -18.4% | -9.66% | -49.8% | -12.2% | -57.4% | -3.34 | -3.76 | 102% | 103% | -1.2% | 30.3% | 20.4% | 17.5% | 6.38% | -35.3% | 20.9% | -68.2% | 18.6% | -82% | -20.8% | -80.4% | 94.7% | 92.9% | 3.55% | 20.4% | -3.18% | -76.5% |
| O=c1sn(-c2cccc3ccccc23)c(=O)n1Cc1ccccc1 [Tideglusib] | 2.52% | 3.97% | -5.07% | 0.868% | -6.75% | -2.88% | -1.71 | -1.3 | -4.62% | 4.74% | 5.65% | 6.56% | 0.036% | 0% | 4.02% | 2.42% | -2.59% | -0.339% | -4% | -0.265% | 17.7% | -11.8% | -2.47% | 7.35% | 0.723% | 0.984% | 9.17% | 6.85% |
| CC(C)Cn1c(=O)n(C)c(=O)c2[nH]cnc21 [IBMX] | -1.18% | 1.45% | -5.33% | -3.42% | -1.15% | -4.45% | -0.424 | -0.627 | 7.96% | -0.365% | 36.8% | 69.3% | 0% | 0.036% | 18.9% | 35.7% | 40.5% | 53.9% | 53.1% | 61.2% | 67.7% | 147% | 3.07% | -2.27% | 0.651% | 1.04% | 12.9% | 19.2% |
| O=C(O)c1cccnc1Nc1cccc(C(F)(F)F)c1 [Niflumic acid] | 2.12% | 1.32% | -5.94% | -1.61% | -3.08% | -6.87% | -1.06 | -0.652 | 4.41% | -6.15% | 4.85% | -0.457% | 0% | 0% | 9.44% | 5.93% | -5.45% | 4.68% | 7.86% | -5.16% | 19.3% | -6.47% | 2.94% | -2.27% | 0.714% | 0.944% | 5.54% | 7.87% |
| CCCCC/C=C\C/C=C\C/C=C\C/C=C\CCCC(=O)NCCO [Anandamide] | 0.0733% | 1.31% | -5.97% | 0.46% | -4.78% | -4.35% | -1.03 | -1.89 | 4% | -4.04% | -2.45% | -3.7% | 0% | 0% | 0.835% | 4.89% | 8.76% | 18.1% | 15.3% | 17.7% | -8.05% | -17.2% | 3.27% | 22.7% | 0.407% | 0.71% | 5.07% | 5.94% |
| Cc1ccc(S(=O)(=O)c2ccc([N+](=O)[O-])o2)cc1 | -0.166% | -5.06% | -76.8% | -91.9% | -86.5% | -92.7% | -1.25 | -1.57 | 103% | 103% | 81% | 103% | 18.5% | 9.8% | -30.4% | -44.1% | -96.9% | -100% | -99.3% | -100% | 3.4% | 0.123% | 83% | 88.8% | 3.49% | 4.92% | -9.29% | -10.6% |
| OCCN(CCO)c1nc(N2CCCCC2)c2nc(N(CCO)CCO)nc(N3CCCCC3)c2n1 [Dipyridamole] | 0.517% | -2.33% | -2.26% | -16% | -6.57% | -14.4% | -2.05 | -2.06 | -2.63% | 7.46% | 56.3% | 74.8% | 0.036% | 0.18% | 36% | 38.1% | 80.3% | 58.3% | 82.1% | 83.5% | 88.9% | 43.9% | 3.21% | 2% | 1.09% | 1.87% | 16.4% | 19.4% |
| Cc1sc2c(c1C)C(c1ccc(Cl)cc1)=N[C@@H](CC(=O)OC(C)(C)C)c1nnc(C)n1-2 [JQ1] | 4.25% | 1.65% | -3.02% | 0.304% | -0.955% | -3.78% | -0.127 | -0.0779 | 56.3% |  | 17.2% | 40.2% | 0.684% | 1.87% | 13.6% | 21.5% | 27.4% | 52.8% | 48% | 55.5% | 18.5% | -14.4% | 16.3% | 31.3% | 0.641% | 1.24% | 15.8% | 27.5% |
| Oc1c(Cl)cc(Cl)cc1Sc1cc(Cl)cc(Cl)c1O [Bithionol] | 3.44% | 1.84% | 1.98% | -0.0801% | 2.41% | -5.59% | 0.0494 | 0.376 | 7.02% | 59.3% | 1.08% | -1.64% | 0% | 0.036% | 3.11% | -10.9% | 11.4% | -27.5% | 17.4% | -30.7% | 4.13% | 7.86% | -4.61% | 21.5% | 0.572% | 1.65% | 2.24% | 1.88% |
| CCc1c(C)nc(SCC(=O)Nc2nc(-c3ccc(OC)cc3)cs2)[nH]c1=O [T16Ainh-A01] | 2.04% | 2.24% | -4.04% | 0.707% | -7.94% | -0.932% | -0.653 | -0.578 | -6.4% | -1.86% | 8.11% | 6.61% | 0% | 0.108% | 5.37% | 6.45% | 1.94% | 14.7% | 4.81% | 19.4% | -2.36% | -0.263% | 6.48% | -5.14% | 0.555% | 1.02% | 2.99% | 14.4% |
| N=C(N)Nc1ccc(C(=O)Oc2ccc3cc(C(=N)N)ccc3c2)cc1 [Nafamostat] | -0.692% | 2.17% | -4.33% | -1.82% | -5.56% | -0.0709% | -0.884 | -0.901 | -7.68% | 4.06% | 5.51% | 15.9% | 0% | 0% | -2.19% | 0.269% | -19.4% | -27.7% | -23.3% | -29.6% | 5.36% | 1.98% | 2.4% | 1.27% | 0.86% | 1.56% | 3.69% | 9.5% |
